Key:
[1] = test system: COX II enzyme; conditions: E. Meade et al; Futaki et al; cited from earlier work
[2] = test system: carrageenan foot edema; assay: Rat Carrageenan Foot Pad Edema Test; type: in vivo, rat (Male Sprague-Dawley); conditions: @ 20 mg/kg body weight, oral, 3 hours after carrageenan, read-out: RAT PAW EDEMA % Inhibition
Procedure: Male Sprague-Dawley rats were selected in each group so that the average body weight was as close as possible. Rats were fasted with free access to water for over sixteen hours prior to the test. […] One hour later a subplantar injection of 0.1 mL of 1% solution of carrageenan/sterile 0.9% saline was administered and the volume of the injected foot was measured with a displacement plethysmometer connected to a pressure transducer with a digital indicator. Three hours after the injection of the carrageenan, the volume of the foot was again measured. […] Rat Carrageenan-induced Analgesia Test

[3] = target: T1, murine COX-II (Mus musculus, UniProt Q05769); assay: biochemical
T1 sequence (Q05769 18-604): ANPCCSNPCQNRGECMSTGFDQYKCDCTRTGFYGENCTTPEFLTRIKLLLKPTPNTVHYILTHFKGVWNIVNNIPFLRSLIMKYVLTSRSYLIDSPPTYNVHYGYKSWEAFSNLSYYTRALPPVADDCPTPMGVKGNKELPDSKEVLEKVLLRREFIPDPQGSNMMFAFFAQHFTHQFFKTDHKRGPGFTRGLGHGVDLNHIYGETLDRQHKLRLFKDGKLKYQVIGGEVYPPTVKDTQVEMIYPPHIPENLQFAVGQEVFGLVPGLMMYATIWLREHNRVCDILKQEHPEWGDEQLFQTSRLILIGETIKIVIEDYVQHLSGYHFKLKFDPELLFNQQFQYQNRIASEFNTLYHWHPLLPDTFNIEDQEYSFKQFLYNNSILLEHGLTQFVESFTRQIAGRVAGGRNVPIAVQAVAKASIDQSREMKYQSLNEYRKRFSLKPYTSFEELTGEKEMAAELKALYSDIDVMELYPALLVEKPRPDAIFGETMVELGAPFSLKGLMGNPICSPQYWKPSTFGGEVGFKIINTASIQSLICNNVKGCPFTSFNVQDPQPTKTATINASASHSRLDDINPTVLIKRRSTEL

[4] = target: T2, murine COX-I (Mus musculus, UniProt P22437); assay: COX I activity in vitro, murine (PGE2 by ELISA)
T2 sequence (P22437 27-602): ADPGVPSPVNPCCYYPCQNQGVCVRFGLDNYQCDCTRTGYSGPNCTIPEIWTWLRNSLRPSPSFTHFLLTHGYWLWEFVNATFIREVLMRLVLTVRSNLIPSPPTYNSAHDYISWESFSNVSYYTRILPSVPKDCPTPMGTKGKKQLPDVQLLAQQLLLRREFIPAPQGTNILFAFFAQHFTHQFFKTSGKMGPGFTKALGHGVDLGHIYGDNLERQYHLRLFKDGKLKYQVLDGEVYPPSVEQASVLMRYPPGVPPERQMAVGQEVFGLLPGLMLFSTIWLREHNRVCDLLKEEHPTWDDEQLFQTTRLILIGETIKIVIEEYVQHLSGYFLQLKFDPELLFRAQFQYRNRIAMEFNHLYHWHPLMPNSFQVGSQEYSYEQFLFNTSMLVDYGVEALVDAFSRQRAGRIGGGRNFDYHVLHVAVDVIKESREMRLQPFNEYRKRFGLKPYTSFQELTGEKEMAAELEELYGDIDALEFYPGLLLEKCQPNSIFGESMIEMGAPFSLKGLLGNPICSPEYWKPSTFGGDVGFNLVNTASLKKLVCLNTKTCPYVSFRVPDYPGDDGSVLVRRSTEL

[5] = target: T3, human COX-II (Homo sapiens, UniProt P35354); assay: COX II activity in vitro, human (PGE2 by ELISA)
T3 sequence (P35354 18-604): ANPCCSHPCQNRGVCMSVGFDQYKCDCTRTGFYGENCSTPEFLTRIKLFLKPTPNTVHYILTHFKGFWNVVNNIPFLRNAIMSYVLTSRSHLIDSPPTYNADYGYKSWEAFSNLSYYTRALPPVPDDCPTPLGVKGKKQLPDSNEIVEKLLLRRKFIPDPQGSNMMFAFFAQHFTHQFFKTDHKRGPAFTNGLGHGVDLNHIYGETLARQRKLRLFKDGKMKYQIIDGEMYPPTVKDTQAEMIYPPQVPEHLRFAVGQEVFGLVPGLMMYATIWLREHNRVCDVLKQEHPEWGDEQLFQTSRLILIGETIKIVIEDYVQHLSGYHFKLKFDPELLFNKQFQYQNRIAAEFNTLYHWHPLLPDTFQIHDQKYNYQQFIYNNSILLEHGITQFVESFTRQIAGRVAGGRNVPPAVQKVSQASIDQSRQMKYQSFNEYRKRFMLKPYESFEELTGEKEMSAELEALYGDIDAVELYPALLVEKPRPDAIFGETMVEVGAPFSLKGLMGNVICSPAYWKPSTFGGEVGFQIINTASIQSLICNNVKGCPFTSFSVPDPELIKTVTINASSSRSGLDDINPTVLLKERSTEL

[6] = test system: carrageenan-induced hyperalgesic foot withdrawal; assay: Rat Carrageenan-induced Analgesia Test; type: in vivo, rat (Male Sprague-Dawley); conditions: for inhibition at 20 mg/kg: read-out: ANALGESIA % Inhibition, @ 20 mg/kg body weight, oral, 3 hours after carrageenan
Procedure: The carrageenan foot edema test was performed with materials, reagents and procedures essentially as described by Winter, et al., (Proc. Soc. Exp. Biol. Med., 111, 544 (1962)). Male Sprague-Dawley rats were selected in each group so that the average body weight was as close as possible. Rats were fasted with free access to water for over sixteen hours prior to the test. The rats were dosed orally (1 mL) with compounds suspended in vehicle containing 0.5% methylcellulose and 0.025% surfactant, or with vehicle alone. One hour later a subplantar injection of 0.1 mL of 1% solution of carrageenan/sterile 0.9% saline was administered and the volume of the injected foot was measured with a displacement plethysmometer connected to a pressure transducer with a digital indicator. Three hours after the injection of the carrageenan, the volume of the foot was again measured. The average foot swelling in a group of drug-treated animals was compared with that of a group of placebo-treated animals and the percentage inhibition of edema was determined (Otterness and Bliven, Laboratory Models for Testing NSAIDS, in Non-steroidal Anti-Inflammatory Drugs, (J. Lombardino, ed. 1985)). […] Rat Carrageenan-induced Analgesia Test
The analgesia test using rat carrageenan was performed with materials, reagents and procedures essentially as described by Hargreaves, et al., (Pain, 32, 77 (1988)). Male Sprague-Dawley rats were treated as previously described for the Carrageenan Foot Pad Edema test. Three hours after the injection of the carrageenan, the rats were placed in a special plexiglass container with a transparent floor having a high intensity lamp as a radiant heat source, positionable under the floor. After an initial twenty minute period, thermal stimulation was begun on either the injected foot or on the contralateral uninjected foot. […] The time until the rat withdraws its foot was then measured. The withdrawal latency in seconds was determined for the control and drug-treated groups, and percent inhibition of the hyperalgesic foot withdrawal determined.

[7] = target: human COX-I (Homo sapiens, UniProt P23219); assay: COX I activity in vitro, human (PGE2 by ELISA)
Chain of human COX-I (P23219 24-599): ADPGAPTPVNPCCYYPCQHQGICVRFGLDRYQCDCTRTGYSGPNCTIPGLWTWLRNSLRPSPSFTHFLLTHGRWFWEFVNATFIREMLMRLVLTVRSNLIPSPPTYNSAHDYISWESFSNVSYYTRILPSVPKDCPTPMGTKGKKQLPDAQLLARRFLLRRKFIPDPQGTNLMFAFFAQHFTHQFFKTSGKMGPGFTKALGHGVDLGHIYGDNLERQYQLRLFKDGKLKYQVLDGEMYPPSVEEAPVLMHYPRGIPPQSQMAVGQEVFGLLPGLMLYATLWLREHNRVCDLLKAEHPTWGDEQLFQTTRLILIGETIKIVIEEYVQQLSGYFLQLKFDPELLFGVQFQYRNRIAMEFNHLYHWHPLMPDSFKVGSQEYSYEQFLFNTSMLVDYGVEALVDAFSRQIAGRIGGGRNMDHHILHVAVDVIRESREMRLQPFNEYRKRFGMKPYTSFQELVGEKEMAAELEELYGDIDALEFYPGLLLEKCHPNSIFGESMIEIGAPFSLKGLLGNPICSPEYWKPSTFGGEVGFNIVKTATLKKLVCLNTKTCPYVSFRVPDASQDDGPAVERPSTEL

Row | SMILES | IC50 [3] [µM] | IC50 [4] [µM] | IC50 [5] [µM] | IC50 [7] [µM] | inhibition of the COX II enzyme [1] | inhibition at 20 mg/kg [2] [%] | inhibition at 20 mg/kg [6] [%] | inhibition at 30 mg/kg ([6]; read-out: ANALGESIA % Inhibition, a @ 30 mg/kg, oral, 3 hours after carrageenan) [%]
1 | COc1ccc2cc(CC(=O)O)ccc2c1 [6-methoxy-2-napthylacetic acid] | – | – | – | – | selectively inhibit the COX II enzyme | – | – | –
2 | CS(=O)(=O)Nc1ccc([N+](=O)[O-])cc1OC1CCCCC1 [N-(2-cyclohexyloxy-4-nitrophenyl)methanesulfonamide] | – | – | – | – | inhibits the COX II enzyme | – | – | –

Continued, in another order:

Row | IC50 [3] [µM] | IC50 [4] [µM] | IC50 [5] [µM] | IC50 [7] [µM] | SMILES | inhibition of the COX II enzyme [1] | inhibition at 20 mg/kg [2] [%] | inhibition at 20 mg/kg [6] [%] | inhibition at 30 mg/kg ([6]; read-out: ANALGESIA % Inhibition, a @ 30 mg/kg, oral, 3 hours after carrageenan) [%]
3 | < 0.1 | > 10 | < 0.1 | – | CS(=O)(=O)c1ccc(-c2sc(-c3ccccc3Cl)nc2-c2ccc(F)cc2)cc1 [Example 16, 2-(2-Chlorophenyl)-4-(4-fluorophenyl)-5-(4-methylsulfonylphenyl)thiazole] | – | 50 | 27 | –
4 | 0.1 | 0.5 | – | – | CS(=O)(=O)c1ccc(-c2sc(NCc3ccccc3)nc2-c2ccc(F)cc2)cc1 [Example 29, 4-(4-Fluorophenyl)-5-(4-methylsulfonylphenyl)-2-benzylaminothiazole] | – | 42 | 24 | –
5 | – | – | < 0.1 | > 100 | CS(=O)(=O)c1ccc(-c2sc(COc3cc(Cl)cc(Cl)c3)nc2-c2ccc(F)cc2)cc1 [Example 33, 2-[(3,5-Dichlorophenoxy)methyl)-4-(4-fluorophenyl)-5-[4-(methylsulfonyl)phenyl]thiazole] | – | 36 | – | 34
